Test results taken from PubChem BioAssay (NCI).
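Test compounds were applied to cells in 96-well plates for 48 hours at 5 doses. Here, GI50 denotes the concentration required for 50% inhibition of growth. TGI is the concentration that stops growth completely.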

Legend:
Test in all cases: NCI-60 cell line screen, 48 h
SNB-75 CNS = test system: SNB-75 CNS
BT-549 breast = test system: BT-549 breast
SF-539 CNS = test system: SF-539 CNS
MDA-MB-231 breast = test system: MDA-MB-231 breast
A549 NSCLC = test system: A549 NSCLC

Structure (SMILES)	TGI (SNB-75 CNS)	TGI (BT-549 breast)	TGI (SF-539 CNS)	TGI (MDA-MB-231 breast)	TGI (A549 NSCLC)	GI50 (MDA-MB-231 breast)
CS(=O)(=O)CCC1CCC(=O)O1 (centres undefined)	> 100 µM	> 100 µM	> 100 µM	> 100 µM	> 100 µM	
Cc1csc(=Nc2ccccc2)n1CCC(O)(P(=O)(O)O)P(=O)(O)O	> 100 µM	> 100 µM	> 100 µM	> 100 µM	> 100 µM	
N/C(CCSCCSCC/C(N)=N\O)=N\O	> 100 µM	> 100 µM	> 100 µM	> 100 µM	> 100 µM	
C#CCN(C(=O)C(F)(F)F)C(/C=C\C(=O)OC)(C(=O)OCC)C(=O)OCC	> 100 µM	> 100 µM	> 100 µM	> 100 µM	> 100 µM	
C[C@H]1CCC/C=C/[C@@H]2C[C@H](OC(=O)CN(C)C)C[C@H]2[C@H](O)/C=C/C(=O)O1	99.7 µM	> 71 µM	> 48.2 µM	0.0327 µM	> 100 µM	
Cc1nc2ccccc2n1Cc1nnc(-c2ccccc2)o1	> 100 µM	> 100 µM	> 100 µM	> 100 µM	> 100 µM	
Cc1nc2ccc(S(=O)(=O)O)cc2c(=O)n1-c1ccc(C(=O)NN2C(=O)C(Cl)C2c2cccs2)cc1 (centres undefined)	> 100 µM	> 100 µM	> 100 µM	45.1 µM	> 100 µM	
COC(=O)/C(=N\N)C(C(=O)C(=O)Nc1cc(Cl)ccc1Cl)c1nc2ccc([N+](=O)[O-])cc2[nH]c1=O (centres undefined)	> 100 µM	> 100 µM	> 100 µM	> 100 µM	> 100 µM	
COc1cc(Nc2cc(Cl)cc(Cl)c2)nc(N)n1	43.6 µM	40.8 µM	33 µM	43.8 µM	48.5 µM	
O=C1C(Cl)=CC2(C=C1Cl)CCN=c1c(O)c3c(c(O)c12)=NC=N3	> 100 µM	75.2 µM	88.4 µM	> 100 µM	> 100 µM	
COc1ccc(OC/C(N)=N/NC(=O)c2ccncc2)cc1	> 100 µM	> 100 µM	> 100 µM	> 100 µM	> 100 µM	
COC(=O)c1sc(=S)sc1SCc1cccc(CSc2sc(=S)sc2C(=O)OC)c1	26.6 µM	94.1 µM	62.6 µM	> 100 µM		
S=c1[nH]nc(Cn2c3ccc(Br)cc3c3nc4ccccc4nc32)o1	> 100 µM	> 100 µM	> 80.7 µM	> 100 µM	59.3 µM	
Cc1cn([C@H]2C[C@@H](N3C(=O)c4ccccc4C3=O)[C@@H](CO[Si](C)(C)C(C)(C)C)O2)c(=O)[nH]c1=O	60.8 µM	> 100 µM	> 100 µM	> 100 µM	> 100 µM	
NC(CCC(=O)O)C(=O)NC(Cc1ccc(N(CCCl)CCCl)cc1)C(=O)O (centres undefined)	> 100 µM	> 100 µM	> 100 µM	> 100 µM	> 100 µM	
CN(CC(=O)Nc1ccccc1C(=O)O)c1ccccc1	> 100 µM	> 100 µM	> 100 µM	> 100 µM	> 100 µM	
O=C1/C(=C/c2ccc(Br)s2)NC(=S)N1CN1CCCCC1	> 100 µM	96.8 µM		> 100 µM		
COC(=O)[C@@H]1Cc2ccc(OC)c(c2)OCCC(=O)N1	> 100 µM	> 100 µM		> 100 µM	> 100 µM	
CN(Cc1cccc2ccsc12)/N=C\c1ccc(Cl)cc1	> 100 µM	> 100 µM		> 100 µM	> 100 µM	
c1ccc(C(NC2=NCCO2)C2CC2)cc1 (centres undefined)	> 100 µM		> 100 µM	> 100 µM	> 100 µM	
CCCCCCC1OC23OC1CCC2C(O)CCC3O (centres undefined)	> 100 µM	> 100 µM	> 100 µM	> 100 µM		
COC(=O)C1CC2CC1C1C2SC(F)(F)C1(F)F (centres undefined)	> 100 µM		> 100 µM	> 100 µM	> 100 µM	
O=c1c2sc3ccccc3sc=2c(=O)c2c(Cl)c(Cl)c(Cl)c(Cl)c12	> 100 µM	> 100 µM		> 100 µM	> 100 µM	
O=c1oc2ccccc2c(-c2ccc(O)cc2)c1Oc1ccccc1	> 79.3 µM		> 75.5 µM	> 100 µM	> 66.9 µM	
Cc1cnc2[nH]c(-c3cccc4ccccc34)cc(=O)c2c1		> 100 µM			> 100 µM	0.0119 µM
CC(=O)n1c2ccc(Br)cc2c2nc3ccccc3nc21	> 100 µM	> 100 µM	> 100 µM	> 100 µM		
C=C1CC[C@@H]2[C@](C)(COC(=O)CCC(=O)OC)CCC[C@@]2(C)[C@@H]1CCC1=CC(=O)OC1		> 100 µM	> 100 µM	> 100 µM	> 100 µM	
O[C@@H]1[C@H](OC2c3ccccc3-c3ccccc32)[C@H](OCc2ccccc2)[C@@H]2OC[C@H]1O2		> 100 µM	81.7 µM	> 100 µM	> 100 µM	
O=C(c1c(F)c(F)c(F)c(F)c1F)n1c(=S)n(C(=O)c2c(F)c(F)c(F)c(F)c2F)c2ccccc21	> 100 µM	> 100 µM	> 100 µM	> 100 µM		
